Results from patent US20250275539A1, “APYRASE INHIBITORS” (Texas Crop Science, Inc., priority 2024, published 2025).
Where two headings read alike, the source gives them in different places.

Columns and labels:
[1] = test system: Amaranthus retroflexus (pigweed); assay: Enhancement of herbicide activity: pre-emergence Amaranthus kill with metribuzin; type: in vivo; settings: for pest or weed control at 100 g/ha: Amaranthus retroflexus; for enhancement of metribuzin herbicidal activity: compound at 100 g/ha with metribuzin, at seven and fourteen days
Description: Specifically, Amaranthus retroflexus (pigweed) was treated pre-emergence with metribuzin alone or in combination with an enhancer compound disclosed herein. Fifteen seeds of Amaranthus retroflexus were sown in soil in each pot and then sprayed with a mixture of metribuzin at the appropriate rate shown in Table 5 and the compound of this invention at 100 g/ha using a track sprayer at a water volume of 200 L/hectare. Small amounts of acetone were used to aid solubility. The pots were watered immediately after sowing and treatment and then allowed to stand in a glasshouse. Assessment of kill was made seven and fourteen days after treatment. The test included four replicates for each treatment and the control.

[2] = test system: Brown Rust (Puccinia recondita) on wheat; assay: Greenhouse crop test: control of Brown Rust on wheat in combination with commercial fungicides; type: in vivo; settings: wheat JB Diego, inoculated 24 hours after treatment, evaluated at fourteen days; for Amistar (% control of the disease, compound + fungicide): with Amistar 0.04 L/ha; for Balaya (% control of the disease, compound + fungicide): with Balaya 0.25 L/ha; for Imtrex (% control of the disease, compound + fungicide): with Imtrex 0.45 L/ha; for Proline (% control of the disease, compound + fungicide): with Proline 0.15 L/ha
Description: In this method, exemplary compounds were evaluated for their ability to control Brown Rust (Puccinia recondita) on wheat in a controlled greenhouse environment in combination with one of four fungicides, Amistar, Imtrex, Proline or Balaya. In these studies, wheat plants (JB Diego) were used. Seeds were sown in 9 cm diameter pots to a depth of 1 to 2 cm using Petersfield potting compost (75% medium grade peat, 12% screened sterilized loam, 3% medium grade vermiculite, 10% grit (5 mm screened, lime free), 1.5 kg PG mix per m3, lime to pH5.5-6.0 and wetting agent (Vitax Ultrawet 200 ml per m3) and germinated/grown at 23 C under a 16 h day/8 h night light regime. Plants were treated two to three weeks after sowing when they were at the BBCH 11 growth stage ([…]). Wheat plants were inoculated with Puccinia triticina (Brown rust) 24 hours after treatment. A track sprayer was used to treat the plants with the mixture of commercial fungicide and test compound using a water volume of 200 L/ha. Four replicates were used for each combination of fungicide, pathogen and test compound. Each plant was evaluated at fourteen days (once the disease symptoms were fully expressed) for % control of the disease. Appropriate controls were used for all experiments, including an ‘inoculation check’ wherein plants were inoculated with their specific pathogen to assess disease levels. Also, each commercial fungicide was tested on its own as a part of each treatment, this being benchmark against which the experimental compounds were evaluated. […] That is, the present compounds, although not fungicidal by themselves, enhance the activity of fungicides, thus the enhancer compounds work synergistically in combination with fungicides to control disease. • Amistar (0.04 L/ha) • Imtrex (0.45 L/ha) • Proline (0.15 L/ha) • Balaya (0.25 L/ha)

apyrase = assay: Apyrase inhibition assay (screen for apyrase inhibitors, phosphate release read at 630 nm); type: biochemical; settings: inhibitor conc at 1 mM (10 μl added), 3 mM ATP, pH 6.5, room temperature 1 hr
[3] = 168 h, read-out: Pre-Emergence Amaranthus Kill Percentage, Assessed 7 DAT, Metribuzin rate 50 g/ha
[4] = 168 h, read-out: Pre-Emergence Amaranthus Kill Percentage, Assessed 7 DAT, Metribuzin rate 100 g/ha
[5] = 168 h, read-out: Pre-Emergence Amaranthus Kill Percentage, Assessed 7 DAT, Metribuzin rate 200 g/ha
[6] = 336 h, read-out: Pre-Emergence Amaranthus Kill Percentage, Assessed 14 DAT, Metribuzin rate 50 g/ha
[7] = 336 h, read-out: Pre-Emergence Amaranthus Kill Percentage, Assessed 14 DAT, Metribuzin rate 100 g/ha
[8] = 336 h, read-out: Pre-Emergence Amaranthus Kill Percentage, Assessed 14 DAT, Metribuzin rate 200 g/ha

COc1cccc(NS(=O)(=O)c2ccc(-c3ccccc3)cc2)c1 [Compound A-3, N-(3-methoxyphenyl)-[1,1′-biphenyl]-4-sulfonamide]
pest or weed control at 100 g/ha [1, 3]: 15.6% | pest or weed control at 100 g/ha [1, 4]: 68.9% | pest or weed control at 100 g/ha [1, 5]: 34% | pest or weed control at 100 g/ha [1, 6]: 21.7% | pest or weed control at 100 g/ha [1, 7]: 72% | pest or weed control at 100 g/ha [1, 8]: 38.5% | enhancement of metribuzin herbicidal activity [1]: significant enhancement | Amistar (% control of the disease, compound + fungicide) [2]: 81.4% | Balaya (% control of the disease, compound + fungicide) [2]: 38.9% | Imtrex (% control of the disease, compound + fungicide) [2]: 47.6% | Proline (% control of the disease, compound + fungicide) [2]: 3.8% | Inhibition (apyrase): A (A is inhibition above 30%)

O=C1Cc2cc(NS(=O)(=O)c3ccc(-c4ccccc4)cc3)ccc2N1 [Compound A-8, N-(2-oxoindolin-5-yl)-[1,1′-biphenyl]-4-sulfonamide]
pest or weed control at 100 g/ha [1, 3]: 12.8% | pest or weed control at 100 g/ha [1, 4]: 28.6% | pest or weed control at 100 g/ha [1, 5]: 100% | pest or weed control at 100 g/ha [1, 6]: 18.8% | pest or weed control at 100 g/ha [1, 7]: 35.7% | pest or weed control at 100 g/ha [1, 8]: 100% | enhancement of metribuzin herbicidal activity [1]: significant enhancement | Amistar (% control of the disease, compound + fungicide) [2]: 72.9% | Balaya (% control of the disease, compound + fungicide) [2]: 77.2% | Imtrex (% control of the disease, compound + fungicide) [2]: 47.8% | Proline (% control of the disease, compound + fungicide) [2]: 13.3% | Inhibition (apyrase): A (A is inhibition above 30%)

Cc1ccnc(NS(=O)(=O)c2ccc(CC#N)cc2)n1 [Compound A-21, 4-(cyanomethyl)-N-(4-methylpyrimidin-2-yl)benzenesulfonamide]
pest or weed control at 100 g/ha [1, 3]: 0% | pest or weed control at 100 g/ha [1, 4]: 62.3% | pest or weed control at 100 g/ha [1, 5]: 100% | pest or weed control at 100 g/ha [1, 6]: 4.4% | pest or weed control at 100 g/ha [1, 7]: 63% | pest or weed control at 100 g/ha [1, 8]: 100% | enhancement of metribuzin herbicidal activity [1]: significant enhancement | Amistar (% control of the disease, compound + fungicide) [2]: 48.5% | Balaya (% control of the disease, compound + fungicide) [2]: 39.0% | Imtrex (% control of the disease, compound + fungicide) [2]: 47.7% | Proline (% control of the disease, compound + fungicide) [2]: 1.2% | Inhibition (apyrase): A (A is inhibition above 30%)

O=S(=O)(Nc1ccc(-c2nncs2)cc1)c1ccc(-c2ccccc2)cc1 [Compound A-29, N-(4-(1,3,4-thiadiazol-2-yl)phenyl)-[1,1′-biphenyl]-4-sulfonamide]
pest or weed control at 100 g/ha [1, 3]: 13.2% | pest or weed control at 100 g/ha [1, 4]: 66.7% | pest or weed control at 100 g/ha [1, 5]: 87.7% | pest or weed control at 100 g/ha [1, 6]: 17.1% | pest or weed control at 100 g/ha [1, 7]: 71.4% | pest or weed control at 100 g/ha [1, 8]: 90% | enhancement of metribuzin herbicidal activity [1]: significant enhancement | Amistar (% control of the disease, compound + fungicide) [2]: 67.0% | Balaya (% control of the disease, compound + fungicide) [2]: 59.5% | Imtrex (% control of the disease, compound + fungicide) [2]: 60.1% | Proline (% control of the disease, compound + fungicide) [2]: 18.7% | Inhibition (apyrase): A (A is inhibition above 30%)

COc1cccc(NS(=O)(=O)c2ccc(-c3ccc(C)cc3)cc2)c1 [Compound A-34, N-(3-methoxyphenyl)-4′-methyl-[1,1′-biphenyl]-4-sulfonamide]
pest or weed control at 100 g/ha [1, 3]: 28.3% | pest or weed control at 100 g/ha [1, 4]: 70.5% | pest or weed control at 100 g/ha [1, 5]: 100% | pest or weed control at 100 g/ha [1, 6]: 37.3% | pest or weed control at 100 g/ha [1, 7]: 77.8% | pest or weed control at 100 g/ha [1, 8]: 100% | enhancement of metribuzin herbicidal activity [1]: significant enhancement | Amistar (% control of the disease, compound + fungicide) [2]: 51.9% | Balaya (% control of the disease, compound + fungicide) [2]: 48.3% | Imtrex (% control of the disease, compound + fungicide) [2]: 34.5% | Proline (% control of the disease, compound + fungicide) [2]: 3.8% | Inhibition (apyrase): A (A is inhibition above 30%)

O=S(=O)(Nc1cccc(C(F)(F)F)c1)c1cnc(-c2ccccc2)nc1 [Compound A-37, 2-phenyl-N-(3-(trifluoromethyl)phenyl)pyrim-idine-5-sulfonamide]
Amistar (% control of the disease, compound + fungicide) [2]: 58.7% | Balaya (% control of the disease, compound + fungicide) [2]: 78.0% | Imtrex (% control of the disease, compound + fungicide) [2]: 12.7% | Proline (% control of the disease, compound + fungicide) [2]: −1.2% | Inhibition (apyrase): B (B is inhibition from 20% to 30%)

Cc1cccc(NS(=O)(=O)c2ccc(C(C)C)cc2)c1 [Compound A-59, 4-isopropyl-N-(m-tolyl)benzenesulfonamide]
pest or weed control at 100 g/ha [1, 3]: 14.3% | pest or weed control at 100 g/ha [1, 4]: 64.6% | pest or weed control at 100 g/ha [1, 5]: 95% | pest or weed control at 100 g/ha [1, 6]: 25.9% | pest or weed control at 100 g/ha [1, 7]: 67.3% | pest or weed control at 100 g/ha [1, 8]: 100% | enhancement of metribuzin herbicidal activity [1]: significant enhancement | Amistar (% control of the disease, compound + fungicide) [2]: 95.0% | Balaya (% control of the disease, compound + fungicide) [2]: 50.0% | Imtrex (% control of the disease, compound + fungicide) [2]: 30.9% | Proline (% control of the disease, compound + fungicide) [2]: 15.6% | Inhibition (apyrase): A (A is inhibition above 30%)

CCCc1ccc(S(=O)(=O)Nc2cccc(C)c2)cc1 [Compound A-62, 4-propyl-N-(m-tolyl)benzenesulfonamide]
pest or weed control at 100 g/ha [1, 3]: 23.5% | pest or weed control at 100 g/ha [1, 4]: 58.9% | pest or weed control at 100 g/ha [1, 5]: 95.8% | pest or weed control at 100 g/ha [1, 6]: 35.7% | pest or weed control at 100 g/ha [1, 7]: 61% | pest or weed control at 100 g/ha [1, 8]: 96% | enhancement of metribuzin herbicidal activity [1]: significant enhancement | Amistar (% control of the disease, compound + fungicide) [2]: 71.7% | Balaya (% control of the disease, compound + fungicide) [2]: 21.7% | Imtrex (% control of the disease, compound + fungicide) [2]: 38.8% | Proline (% control of the disease, compound + fungicide) [2]: 1.4% | Inhibition (apyrase): A (A is inhibition above 30%)

Cc1cccc(NS(=O)(=O)c2ccc(C3CCCCC3)cc2)c1 [Compound A-64, 4-cyclohexyl-N-(m-tolyl)benzenesulfonamide]
Amistar (% control of the disease, compound + fungicide) [2]: 69.5% | Balaya (% control of the disease, compound + fungicide) [2]: −75.9% | Imtrex (% control of the disease, compound + fungicide) [2]: −15.4% | Proline (% control of the disease, compound + fungicide) [2]: 2.9% | Inhibition (apyrase): A (A is inhibition above 30%)

O=S(=O)(Nc1ccc2c(c1)CCCN2)c1ccc(-c2ccccc2)cc1 [Compound A-99, N-(1,2,3,4-tetrahydroquinolin-6-yl)-[1,1′-biphenyl]-4-sulfonamide]
Amistar (% control of the disease, compound + fungicide) [2]: 71.4% | Balaya (% control of the disease, compound + fungicide) [2]: 84.1% | Imtrex (% control of the disease, compound + fungicide) [2]: 16.1% | Proline (% control of the disease, compound + fungicide) [2]: 5.7% | Inhibition (apyrase): A (A is inhibition above 30%)

Cc1cccc(NS(=O)(=O)c2ccc(CCC(=O)O)cc2)c1 [Compound A-103, 3-(4-(N-(m-tolyl)sulfamoyl)phenyl) propanoic acid]
pest or weed control at 100 g/ha [1, 3]: 5.1% | pest or weed control at 100 g/ha [1, 4]: 54.7% | pest or weed control at 100 g/ha [1, 5]: 91.5% | pest or weed control at 100 g/ha [1, 6]: 30.6% | pest or weed control at 100 g/ha [1, 7]: 43.1% | pest or weed control at 100 g/ha [1, 8]: 98.4% | enhancement of metribuzin herbicidal activity [1]: significant enhancement | Amistar (% control of the disease, compound + fungicide) [2]: 37.0% | Balaya (% control of the disease, compound + fungicide) [2]: 67.2% | Imtrex (% control of the disease, compound + fungicide) [2]: 13.2% | Proline (% control of the disease, compound + fungicide) [2]: 4.4% | Inhibition (apyrase): B (B is inhibition from 20% to 30%)

O=S(=O)(Nc1cccc(Cl)c1N1CCOCC1)c1ccc(-c2ccccc2)cc1 [Compound A-116, N-(3-chloro-2-morpholinophenyl)-[1,1′-biphenyl]-4-sulfonamide]
Amistar (% control of the disease, compound + fungicide) [2]: 68.0% | Balaya (% control of the disease, compound + fungicide) [2]: 24.2% | Imtrex (% control of the disease, compound + fungicide) [2]: 48.4% | Proline (% control of the disease, compound + fungicide) [2]: 14.6% | Inhibition (apyrase): A (A is inhibition above 30%)
